# Legend:
# [1] = system: HBsAg-specific antibodies (anti-HBs); set-up: species or system BALB/c mice; details: mouse, in vivo, po
# [2] = system: HBsAg-specific antibodies (anti-HBs); set-up: species or system BALB/c mice; details: mouse, in vivo
# [3] = system: HBsAg-specific antibodies; set-up: species or system BALB/c mice; details: mouse, in vivo, po
# [4] = in vivo; cited from earlier work
Substance,"HBsAg-specific IgG titers, non-CpG ODN versus equivalent dose of CpG ODN [1]",anti-HBs IgG titers in plasma [1],"antibody isotypes (IgG1 Th2-like, IgG2a Th1-like) as indication of Th-bias [1]",enhancement of immune responses (anti-HBs) with IM delivery [2],HBsAg-specific IgG in plasma [3],dose causing severe diarrhea [4] [µg]
5′-TCCAGGACTTCTCTCAGGTT-3′ [non-CpG ODN #1982],no significant difference,much higher levels,predominance of IgG1,not,now detected,
Cholera toxin [CT],,much higher levels,predominance of IgG1,,,1 to 5
TCCATGACGTTCCTGACGTT [CpG ODN #1826],,much higher levels,equally mixed Th1/Th2 response,enhancement of immune responses,now detected,

# — patent US20010044416A1 (priority 2000, published 2001)
